Data as given in article PMC11470999, “Penfluridol inhibits melanoma growth and metastasis through enhancing von Hippel‒Lindau tumor suppressor‐mediated cancerous inhibitor of protein phosphatase 2A (CIP2A) degradation” (MedComm, 2024).

Experiments:
Hu‐CIP2A (1‐560) = target: T1, Hu‐CIP2A (1‐560) (Homo sapiens, UniProt Q8TCG1); experiment: isothermal titration calorimetry, one-site model; type: binding; settings: read-out: dissociation constant
T1 construct: recombinant purified N-terminal armadillo repeat domain, residues 1-560 of 905
Text: isothermal titration calorimetry, one-site model on Hu‐CIP2A (1‐560) | A strong binding affinity between PF and CIP2A protein was observed, with a dissociation constant

CIP2A = target: T2, CIP2A (Homo sapiens, UniProt Q8TCG1); experiment: DARTS (proteinase K, immunoblot) and cellular thermal shift assay; type: cell-based; settings: A375 cells treated with PF (DARTS); melanoma cells (CETSA)
T2 construct: endogenous full-length protein in A375 human melanoma cells / lysate; 905 residues

For `OC1(c2ccc(Cl)c(C(F)(F)F)c2)CCN(CCCC(c2ccc(F)cc2)c2ccc(F)cc2)CC1` [PF, Penfluridol], the Kd (Hu‐CIP2A (1‐560)) was 7.42 µM and the “DARTS (proteinase K, immunoblot) and cellular thermal shift assay” value (CIP2A) was “PF protects CIP2A from proteinase K‐induced protein hydrolysis”.
